This is an account of results in patent US9206136B2, “Pyrazolyl-based carboxamides I” (Grünenthal GmbH, priority 2013, dated 2015).

For experiment [1], the target named is T1, CRAC channel (endogenous SOC in HEK293 cells) (Homo sapiens, UniProt Q96D31).
T1 construct: host or cells: HEK293
In words: HEK Calcium Influx Assay (FLIPR). The experiment is classed as cell-based. The conditions noted are these: 10 μM compound, thapsigargin store depletion, Ca2+ signal 9.5-10 min post-administration, read-out: % inhib. [@ 10 μM] FLIPR. The procedure: Compounds of the invention have been tested for their effects on CRAC channels according to the following or similar procedures.
The effect of compounds of the invention on intracellular [Ca^2+] was tested in the HEK293 cell line (ECACC).
HEK293 cells were cultured in DMEM/F12/Glutamax (Gibco) containing 10% FCS (Gibco), and maintained at 37° C., 5% CO2. Cell were split twice a week [3·10^6 (Mon-Thu) and 1·10^6 (Thu-Mon) cells/50 ml medium in T-175 ZK culture flasks, respectively]. 24 hours pre-experiment, cells were seeded on 96 well plates (Poly-D-Lysine 96well Black/Clear Plate, BD Biocoat REF 356640) at a density of 40,000 cells/well in DMEM/F12 (Gibco) containing 10% FCS (Gibco), and maintained at 37° C., 5% CO2.
Prior to store-depletion, cell culture medium was removed and cells were loaded with the a Ca^2+-sensitive fluorescent dye comprised within the Calcium-4-assay kit (Molecular Devices) in nominally Ca^2+-free HBS buffer (140 mM NaCl, 4 mM KCl, 0.2 mM MgCl2, 11 mM D-glucose, and 10 mM HEPES, pH 7.4) according to manufacturer's instruction for 60 min at 37° C., 5% CO2.
Passive depletion of intracellular Ca^2+-stores was then triggered by employing the SERCA inhibitor thapsigargin (2 μM final) for 10 min in the dark (rt). To prevent immediate Ca^2+-entry via the activated Store-operated channels (SOCs), cells were maintained in Ca^2+-free HBS buffer comprising 100 μM EGTA during store-depletion.
Intracellular changes in [Ca^2+] were subsequently monitored with the FLIPR device (Molecular Devices). In brief, baseline imaging post-store depletion was allowed for 1 min before adjusting the extracellular buffer to 3 mM CaCl2. Increases in intracellular [Ca^2+] due to pre-activated SOC channels were monitored for 15 min until intracellular Ca^2+ levels had declined into a steady-state. Finally, compounds were administered and Ca^2+ signals were recorded for additional 10 min.
Inhibition of endogenous SOC in HEK293 cells was quantified employing the average Ca^2+ signal measured from 9.5-10 min post-administration. Zero percent inhibition (MAX) was defined as the Ca^2+ signal recorded from wells to which DMSO-only had been added instead of compound. Hundred percent inhibition (MIN) was defined as the signal obtained from wells in which cells haven't been treated with TG prior to Ca^2+ addition and to which DMSO-only had been added instead of compound. For routine IC50 determinations of compounds, 8 concentrations of a serial dilution (1:3.16) were tested, starting off from 10 μM. Reliable IC50's could consequently be determined only, if they were at least sub 2.5-3 μM.

The subject of experiment [2] is Interleukin-2 (IL-2) production/release in Jurkat T cell line clone E6-1. In words: Jurkat IL-2 Production Assay. Format: cell-based. As to conditions: Homo sapiens; Jurkat T cells stimulated with 15 μg/ml PHA for 22 hours; IL-2 in supernatant (AlphaLisa). How it is done: Jurkat IL-2 Production Assay
The effect of compounds of the invention on Interleukin-2 (IL-2) production/release was tested in the Jurkat T cell line (ECACC) clone E6-1.
Jurkat T cells were cultured in DMEM/F12/Glutamax (Gibco) containing 10% FCS (Gibco), and maintained at 37° C., 5% CO2. Cells were split twice a week [5·10^6 (Mon-Thu) and 1·10^7 (Thu-Mon) cells/50 ml medium in T-175 ZK culture flasks, respectively].
Prior to experiment, cells were seeded on 96 well plates (Cellstar 96 Well; Cat No. 655180, Greiner bio-one) at a density of 5·10^5 cells/well in DMEM/F12/Glutamax (Gibco) containing 10% FCS (Gibco), and incubated for 60 min at 37° C., 5% CO2. Subsequently, compounds were added and cells were allowed to incubate for 30 min at 37° C., 5% CO2. Cells were then stimulated with 15 μg/ml Phyto-hemagglutinin (PHA; Sigma) for 22 hours at 37° C., 5% CO2.
Before sampling of the supernatants, cells were spun down (200*g/5 min/RT). The amount of IL-2 released into the supernatant was quantified with the human IL-2 AlphaLisa kit (Perkin Elmer) according to manufacturer's instructions. Luminescence proximity measurements were carried out in the Synergy H4 reader (BioTek) employing the fluorescence setting of the reader (ex: 680/30 nm; em: 620/40 nm).
Inhibition of IL-Production/Release in/from Jurkat T Cells Cells was Quantified as Follows:
Zero percent inhibition (MAX) was defined as the [IL-2] determined in supernatants derived from cells to which PHA & DMSO-only had been added instead of compound. Hundred percent inhibition (MIN) was defined as the [IL-2] determined in supernatants derived from cells that had been pre-treated with 1 μM CyclosporineA (Sigma) before the addition of 15 μg/ml PHA.
For routine IC50 determinations of compounds, 8 concentrations of a serial dilution (1:3.16) were tested, starting off from 10 μM.

T1 sequence (Q96D31 whole entry): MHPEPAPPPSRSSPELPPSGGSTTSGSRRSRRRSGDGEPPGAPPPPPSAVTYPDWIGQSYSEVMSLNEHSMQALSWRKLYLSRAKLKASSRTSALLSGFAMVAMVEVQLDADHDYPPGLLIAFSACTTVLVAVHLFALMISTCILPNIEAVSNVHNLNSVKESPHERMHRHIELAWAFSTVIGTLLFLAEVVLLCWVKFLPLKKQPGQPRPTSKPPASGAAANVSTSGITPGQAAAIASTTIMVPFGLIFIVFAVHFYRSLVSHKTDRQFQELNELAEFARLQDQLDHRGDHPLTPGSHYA

For the compound `Cc1ccc(-c2ccnc(N)c2)cc1-c1cc(C(=O)Nc2c(F)cccc2F)nn1C` [Example 20, 5-[5-(2-Amino-pyridin-4-yl)-2-methyl-phenyl]-N-(2,6-difluoro-phenyl)-1-methyl-1H-pyrazole-3-carboxylic acid amide], the inhibition at 10 µM in experiment [1] was in the range of 50 to 70%. Moreover, the IC50 in experiment [2] fell in the range of 0.5 to 1 µM.

Consider `Cc1ccc(C2CCOCC2)cc1-c1cc(C(=O)Nc2c(F)cccc2F)nn1C` [Example 22, N-(2,6-Difluoro-phenyl)-1-methyl-5-(2-methyl-5-tetrahydro-pyran-4-yl-phenyl)-1H-pyrazole-3-carboxylic acid amide], for which the inhibition at 10 µM in experiment [1] is more than 70%. For the same compound, in experiment [2], the IC50 lay in the range of 1 to 5 µM.

Turning to `Cc1ccc(-c2ncn(C)n2)cc1-c1cc(C(=O)Nc2c(F)cccc2F)nn1C` [Example 23, N-(2,6-Difluoro-phenyl)-1-methyl-5-[2-methyl-5-(1-methyl-1H-[1,2,4]triazol-3-yl)-phenyl]-1H-pyrazole-3-carboxylic acid amide], in experiment [1], the inhibition at 10 µM is less than 50%. Besides, in experiment [2], the IC50 was in the range of 1 to 5 µM.

Consider `Cc1cc(-c2nccs2)ccc1-c1cc(C(=O)Nc2c(F)cccc2F)nn1C` [Example 24, N-(2,6-Difluoro-phenyl)-1-methyl-5-(2-methyl-4-thiazol-2-yl-phenyl)-1H-pyrazole-3-carboxylic acid amide], for which the inhibition at 10 µM in experiment [1] was more than 70%. Also, in experiment [2], the IC50 lay within 1 to 5 µM.

As to `Cc1ccc(-c2nccs2)cc1-c1c(C)c(C(=O)Nc2c(F)cccc2F)nn1C` [Example 25, N-(2,6-Difluoro-phenyl)-1,4-dimethyl-5-(2-methyl-5-thiazol-2-yl-phenyl)-1H-pyrazole-3-carboxylic acid amide], the inhibition at 10 µM in experiment [1] was less than 50%. In addition, the 50% inhibitory concentration (IC50) in experiment [2] was in the range of 1 to 5 µM.

Take `Cc1ccc(-c2nccs2)cc1-c1c(C)c(C(=O)Nc2ccncc2F)nn1C` [Example 26, N-(3-Fluoro-pyridin-4-yl)-1,4-dimethyl-5-(2-methyl-5-thiazol-2-yl-phenyl)-1H-pyrazole-3-carboxylic acid amide]: in experiment [1], the inhibition at 10 µM is less than 50%. Further, in experiment [2], the IC50 is 1 to 5 µM.

For the compound `Cc1c(C(=O)Nc2c(F)cccc2F)nn(C)c1-c1cccc(-c2nccs2)c1` [Example 27, N-(2,6-Difluoro-phenyl)-1,4-dimethyl-5-(3-thiazol-2-yl-phenyl)-1H-pyrazole-3-carboxylic acid amide], the inhibition at 10 µM in experiment [1] was more than 70%. In addition, the half-inhibitory concentration (IC50) in experiment [2] lay within 0.5 to 1 µM.

In the case of `Cc1nnc(-c2ccc(C)c(-c3cc(C(=O)Nc4c(F)cccc4F)nn3C)c2)[nH]1` [Example 28, N-(2,6-Difluoro-phenyl)-1-methyl-5-[2-methyl-5-(5-methyl-4H-[1,2,4]triazol-3-yl)-phenyl]-1H-pyrazole-3-carboxylic acid amide], the inhibition at 10 µM in experiment [1] was less than 50%. For the same compound, the IC50 in experiment [2] fell in the range of 1 to 5 µM.

On to `Cn1nc(C(=O)Nc2c(F)cccc2F)cc1-c1cc(-c2ncco2)ccc1OC(F)(F)F` [Example 30, N-(2,6-Difluoro-phenyl)-1-methyl-5-[5-oxazol-2-yl-2-(trifluoromethyloxy)-phenyl]-1H-pyrazole-3-carboxylic acid amide], for which the inhibition at 10 µM in experiment [1] was more than 70%. In experiment [2], the IC50 was 0.5 to 1 µM.

For `Cn1nc(C(=O)Nc2ccncc2F)cc1-c1cc(-c2ncco2)ccc1OC(F)(F)F` [Example 31, N-(3-Fluoro-pyridin-4-yl)-1-methyl-5-[5-oxazol-2-yl-2-(trifluoromethyloxy)-phenyl]-1H-pyrazole-3-carboxylic acid amide], the inhibition at 10 µM in experiment [1] was 50 to 70%. The IC50 in experiment [2] is 1 to 5 µM.

As to `Cc1ccc(-c2nnc[nH]2)cc1-c1cc(C(=O)Nc2c(F)cccc2F)nn1C` [Example 32, N-(2,6-Difluoro-phenyl)-1-methyl-5-[2-methyl-5-(4H-[1,2,4]triazol-3-yl)-phenyl]-1H-pyrazole-3-carboxylic acid amide], the inhibition at 10 µM in experiment [1] was less than 50%. Besides, the half-inhibitory concentration (IC50) in experiment [2] was in the range of 1 to 5 µM.

For the compound `Cn1nc(C(=O)Nc2c(F)cncc2F)cc1-c1cc(-c2ncco2)ccc1OC(F)(F)F` [Example 33, N-(3,5-Difluoro-pyridin-4-yl)-1-methyl-5-[5-oxazol-2-yl-2-(trifluoro-methyloxy)-phenyl]-1H-pyrazole-3-carboxylic acid amide], in experiment [1], the inhibition at 10 µM was 50 to 70%. Also, the 50% inhibitory concentration (IC50) in experiment [2] lay within 0.5 to 1 µM.

On to `COc1ccc(C2CC2)cc1-c1c(C)c(C(=O)Nc2c(F)cccc2F)nn1C` [Example 34, 5-(5-Cyclopropyl-2-methoxy-phenyl)-N-(2,6-difluoro-phenyl)-1,4-dimethyl-1H-pyrazole-3-carboxylic acid amide], for which, in experiment [1], the inhibition at 10 µM is more than 70%. Further, in experiment [2], the 50% inhibitory concentration (IC50) was in the range of 0.5 to 1 µM.

As for `COc1ccc(C2CC2)cc1-c1c(C)c(C(=O)Nc2c(F)cncc2F)nn1C` [Example 35, 5-(5-Cyclopropyl-2-methoxy-phenyl)-N-(3,5-difluoro-pyridin-4-yl)-1,4-dimethyl-1H-pyrazole-3-carboxylic acid amide], the inhibition at 10 µM in experiment [1] is more than 70%. The IC50 in experiment [2] is 0.5 to 1 µM.

Consider `Cn1nc(C(=O)Nc2c(F)cccc2F)cc1-c1cc(C2CC2)ccc1OC(F)(F)F` [Example 36, 5-[5-Cyclopropyl-2-(trifluoromethyloxy)-phenyl]-N-(2,6-difluoro-phenyl)-1-methyl-1H-pyrazole-3-carboxylic acid amide], for which the inhibition at 10 µM in experiment [1] is more than 70%. Also, the IC50 in experiment [2] was less than 0.5 µM.

In the case of `Cn1nc(C(=O)Nc2c(F)cncc2F)cc1-c1cc(C2CC2)ccc1OC(F)(F)F` [Example 37, 5-[5-Cyclopropyl-2-(trifluoromethyloxy)-phenyl]-N-(3,5-difluoro-pyridin-4-yl)-1-methyl-1H-pyrazole-3-carboxylic acid amide], the inhibition at 10 µM in experiment [1] is more than 70%. The IC50 in experiment [2] was less than 0.5 µM.

On to `Cn1nc(C(=O)Nc2ccncc2F)cc1-c1cc(C2CC2)ccc1OC(F)(F)F` [Example 38, 5-[5-Cyclopropyl-2-(trifluoromethyloxy)-phenyl]-N-(3-fluoro-pyridin-4-yl)-1-methyl-1H-pyrazole-3-carboxylic acid amide], for which the inhibition at 10 µM in experiment [1] is more than 70%. Further, in experiment [2], the half-inhibitory concentration (IC50) is 1 to 5 µM.

With `Cn1nc(C(=O)Nc2c(F)cccc2F)cc1-c1ccc(C2CC2)cc1OC(F)(F)F` [Example 39, 5-[4-Cyclopropyl-2-(trifluoromethyloxy)-phenyl]-N-(2,6-difluoro-phenyl)-1-methyl-1H-pyrazole-3-carboxylic acid amide], in experiment [1], the inhibition at 10 µM is more than 70%. Further, the concentration for half-maximal inhibition (IC50) in experiment [2] was less than 0.5 µM.

For `Cn1nc(C(=O)Nc2c(F)cncc2F)cc1-c1ccc(C2CC2)cc1OC(F)(F)F` [Example 40, 5-[4-Cyclopropyl-2-(trifluoromethyloxy)-phenyl]-N-(3,5-difluoro-pyridin-4-yl)-1-methyl-1H-pyrazole-3-carboxylic acid amide], the inhibition at 10 µM in experiment [1] was more than 70%. For the same compound, the concentration for half-maximal inhibition (IC50) in experiment [2] was less than 0.5 µM.
